Patent US9856247B2, “4-methyl-dihydropyrimidines for the treatment and prophylaxis of Hepatitis B virus infection” (Hoffmann-La Roche Inc., priority 2012, dated 2018)
pEC50: −log10 of the molar value.

Assays:
[1] = system: HBV; settings: HBV infected transgenic mouse or humanized mouse models; cited from earlier work
[2] = Incubation with mouse liver microsomes (metabolite formation); format: in vitro ADME, male CD-1 mouse; settings: 5 μM, 1 mM NADPH, 60 minutes
Method: (§1) In this experiment, pooled liver microsomes (20 mg/ml) from human, male Wister rat and male CD-1 mouse were obtained from BD Bioscience (Franklin Lakes, N.J. USA). Incubation reaction mixtures contained a final concentration of 0.1M sodium phosphate buffer (pH 7.4), 0.5 mg/ml microsomal protein, 5 μM of the tested compounds and 1 mM NADPH in a total volume of 400 μl. The incubations were done for 60 minutes and 300 μl of the mixtures was transferred to 150 μl of ice cold methanol to terminate reactions. After vortexes for 3 minutes and centrifuged at 4000 rpm at 4° C. for 10 minutes, the clear supernatant was used directly for analysis. The samples were analyzed by Applied Biosystems API 3200 Q TRAP LC/MS/MS system using electrospray ionization mode.

[3] = Stability in mouse liver homogenate; format: in vitro ADME, CD-1 mouse
Method: In this experiment, fresh mouse liver sample was homogenized by adding saline (1 g liver tissue: 5 mL saline) immediately after collection. After centrifuging for 10 minutes at 14000 rpm, the pooled supernatant was used to prepare liver homogenate solutions. […] Then, they were incubated at rt. After incubation time of 0, 15 and 30 minutes, 180 μl aliquots of MeOH was added into 20 μl of homogenate, respectively. All these samples were vortex mixed for 5 minutes at 1500 rpm and centrifuged for 10 minutes at 14000 rpm. The supernatants were transferred into a 96-well plate for LC-MS/MS analysis.
The Chromatographic separation was achieved on a Chromolith Performance RP-18 endcapped (3×100 mm) at room temperature.
Data processing was performed with Agilent MassHunter Workstation Data Acquisition B.04.00 and Agilent MassHunter Workstation Qualitative Analysis B.04.00.

[4] = Incubation with human liver microsomes (metabolite formation); format: in vitro ADME; settings: 5 μM, 1 mM NADPH, 60 minutes
Method: as §1

[5] = Incubation with rat liver microsomes (metabolite formation); format: in vitro ADME, male Wister rat; settings: 5 μM, 1 mM NADPH, 60 minutes
Method: as §1

[6] = system: HBV DNA; assay: Anti-HBV activity in HepDE19 cells (HBV DNA dot-blot); format: cell-based, Hepatitis B virus (HBV); settings: Hepatitis B virus, 120 h; HepDE19 cells, five days after compound treatment, concentration that inhibited HBV DNA by 50%; read-out: HepDe19 EC50
Description: Cells and culture conditions: HepDE19 (Haitao Guo et al, Journal of Virology, 81, November 2007, 12472-12484; Richeng Mao et al, Journal of Virology, 85, January 2011, 1048-1057) cells were derived from HepG2 (ATCC, American Type Culture Collection) cells through transfection with pTet-off plasmid (Clontech) that expresses the Tet-responsive transcriptional activator and pTREHBVDE plasmid in which HBV pgRNA expression is controlled by a CMV early promoter with a tetracycline-responsive element. The transfected cells were selected with G418 (also known as Genticin, purchased from Invitrogen). […] These cells were maintained in Dulbecco's modified Eagle's medium (DMEM)-F12 medium (Invitrogen) supplemented with 10% fetal bovine serum, 100 U/ml penicillin, and 100 μg/ml streptomycin, 0.5 mg/ml of G418 and 1 μg/ml tetracycline.
Anti-HBV activity and cytotoxicity: HepDE19 cells were seeded into 96-well plates (3×10^4 cells/well) with tetracycline-free medium and incubated overnight at 37° C. The test or control compounds were serially half-log diluted with medium and added into the plates (the final concentration of DMSO kept at 0.5% in each well). Five days after compound treatment, cells were washed with PBS and lysed with 50 mM Tris-1 mM EDTA-0.2% CA-630 (pH 8.0) at 37° C. for 20 min. After centrifugation to remove nuclei and other debris, the supernatant was transferred into a new plate and incubated with 2M NaOH/20×SSC (3M NaCl, 0.3M Sodium citrate, pH7.0) at rt for 30 min. Then the samples were transferred to nylon membrane and neutralized with 1M Tris (pH7.4)/2M NaCl. The presence of HBV DNA was detected by dot-blot with DIG-labeled HBV specific DNA probe and quantified by dot density. The compound concentrations that inhibited HBV DNA by 50% (EC50) were determined (See Table 1).

[7] = in vitro; settings: human
Method: The transfected cells were selected with G418 (also known as Genticin, purchased from Invitrogen). […] These cells were maintained in Dulbecco's modified Eagle's medium (DMEM)-F12 medium (Invitrogen) supplemented with 10% fetal bovine serum, 100 U/ml penicillin, and 100 μg/ml streptomycin, 0.5 mg/ml of G418 and 1 μg/ml tetracycline.
To determine if the anti-HBV effect of compound is due to cytotoxicity, HepDE 19 cells (5×10^3 cells/well) were seeded into 96-well plates and compounds were treated as described above. […] Four hours after incubation at 37° C., the absorbance at wavelengths of 450 nm and 630 nm (OD450 and OD630) was recorded by a plate reader.

Row | SMILES | pEC50 [6] | CC50 at 5 days [7] | other results
1 | COC(=O)C1=C(C)NC(c2ncc(F)cc2F)=N[C@H]1c1ccc(F)cc1Cl [Bay 41-4109] |  |  | in vivo efficacy (HBV DNA reduction) [1]: demonstrated in vivo efficacy with HBV DNA reduction; conversion to pyrimidine product XLVI [2]: oxidized to pyrimidine product XLVI; Percentage to 0 min ([3]; 100 ng/mL, incubation time 0 min): 100%; Percentage to 0 min ([3]; 100 ng/mL, incubation time 15 min, rt): 1.84%; Percentage to 0 min ([3]; 300 ng/mL, incubation time 0 min): 100%; Percentage to 0 min ([3]; 300 ng/mL, incubation time 30 min, rt): 0%; Percentage to 0 min ([3]; 1000 ng/mL, incubation time 0 min): 100%; Percentage to 0 min ([3]; 1000 ng/mL, incubation time 15 min, rt): 1.90%; Percentage to 0 min ([3]; 1000 ng/mL, incubation time 30 min, rt): 0.16%; compound detected after incubation ([3]; 15 minutes room temperature incubation, at three different concentration levels): About 2%; stability in liver homogenate treated with saline ([3]; conclusion in words): not stable; conversion to pyrimidine product XLVI [4]: converted to XLVI; conversion to pyrimidine product XLVI [5]: oxidized to pyrimidine product XLVI
2 | COC(=O)C1=C(CN2CC(F)(F)C[C@H]2C(=O)O)NC(c2ccon2)=NC1(C)c1ccc(F)cc1 (stereo partly drawn) [Example 35, 6-((S)-2-carboxy-4,4-difluoro-pyrrolidin-1-ylmethyl)-4-(4-fluoro-phenyl)-2-isoxazol-3-yl-4-methyl-1,4-dihydro-pyrimidine-5-carboxylic acid methyl ester] | 4.82 | ≥ 100 µM | 
3 | COC(=O)C1=C(CN2CC(F)(F)C[C@H]2c2nc(C)no2)NC(c2nccs2)=N[C@@]1(C)c1ccc(F)cc1 [Example 59, (S)-6-[(S)-4,4-difluoro-2-(3-methyl-[1,2,4]oxadiazol-5-yl)-pyrrolidin-1-ylmethyl]-4-(4-fluoro-phenyl)-4-methyl-2-thiazol-2-yl-1,4-dihydro-pyrimidine-5-carboxylic acid methyl ester] | 5.91 | 65.3 µM | 
4 | COC(=O)C1=C(CN2CC(F)(F)C[C@H]2C(N)=O)NC(c2nccs2)=N[C@@]1(C)c1ccc(F)cc1 [Example 48, (S)-6-((S)-2-carbamoyl-4,4-difluoro-pyrrolidin-1-ylmethyl)-4-(4-fluoro-phenyl)-4-methyl-2-thiazol-2-yl-1,4-dihydro-pyrimidine-5-carboxylic acid methyl ester] | 7.10 | ≥ 100 µM | 
5 | COC(=O)C1=C(CN2CC(F)(F)C[C@H]2C(=O)O)NC(c2nc(C)cs2)=N[C@]1(C)c1ccc(F)cc1 [Example 31, (R)-6-((S)-2-carboxy-4,4-difluoro-pyrrolidin-1-ylmethyl)-4-(4-fluoro-phenyl)-4-methyl-2-(4-methyl-thiazol-2-yl)-1,4-dihydro-pyrimidine-5-carboxylic acid methyl ester] | 5.78 | ≥ 100 µM | 
6 | COC(=O)C1=C(CN2CC(F)(F)C[C@H]2C(=O)O)NC(c2sccc2F)=N[C@]1(C)c1ccc(F)cc1 [Example 42, (R)-6-((S)-2-carboxy-4,4-difluoro-pyrrolidin-1-ylmethyl)-4-(4-fluoro-phenyl)-2-(3-fluoro-thiophen-2-yl)-4-methyl-1,4-dihydro-pyrimidine-5-carboxylic acid methyl ester] | 5.17 | ≥ 100 µM | 
7 | COC(=O)C1=C(CN2CCOC[C@@H]2C(=O)O)NC(c2ccc(F)cn2)=NC1(C)c1ccc(F)cc1 (stereo partly drawn) [Example 9, 4-[6-(4-Fluoro-phenyl)-2-(5-fluoro-pyridin-2-yl)-5-methoxycarbonyl-6-methyl-3,6-dihydro-pyrimidin-4-ylmethyl]-morpholine-(R)-3-carboxylic acid] | 5.38 | > 100 µM | 
8 | COC(=O)C1=C(CN2CCOC[C@H]2C(=O)OC)NC(c2nccs2)=NC1(C)c1ccc(F)cc1 (stereo partly drawn) [Example 5, 4-[6-(4-Fluoro-phenyl)-5-methoxycarbonyl-6-methyl-2-thiazol-2-yl-3,6-dihydro-pyrimidin-4-ylmethyl]-morpholine-(S)-3-carboxylic acid methyl ester] | 6.15 | > 100 µM | 
9 | COC(=O)C1=C(CN2CC(F)(F)C[C@H]2C(=O)O)NC(c2cc(F)cs2)=N[C@@]1(C)c1ccc(F)cc1 [Example 43, (S)-6-((S)-2-carboxy-4,4-difluoro-pyrrolidin-1-ylmethyl)-4-(4-fluoro-phenyl)-2-(4-fluoro-thiophen-2-yl)-4-methyl-1,4-dihydro-pyrimidine-5-carboxylic acid methyl ester] | 6.88 | ≥ 100 µM | 
10 | COC(=O)C1=C(CN2CCOC[C@H]2C(=O)O)NC(c2ccc(F)cn2)=NC1(C)c1ccc(F)cc1 (stereo partly drawn) [Example 10, 4-[6-(4-Fluoro-phenyl)-2-(5-fluoro-pyridin-2-yl)-5-methoxycarbonyl-6-methyl-3,6-dihydro-pyrimidin-4-ylmethyl]-morpholine-(S)-3-carboxylic acid] | 5.15 | > 100 µM | 
11 | COC(=O)C1=C(CN2C[C@H](F)C[C@H]2C(=O)O)NC(c2nccs2)=N[C@@]1(C)c1ccc(F)cc1 [Example 34, (S)-6-((2S,4R)-2-Carboxy-4-fluoro-pyrrolidin-1-ylmethyl)-4-(4-fluoro-phenyl)-4-methyl-2-thiazol-2-yl-1,4-dihydro-pyrimidine-5-carboxylic acid methyl ester] | 5.55 | ≥ 100 µM | 
12 | COC(=O)C1=C(CN2CC(F)(F)C[C@H]2C(=O)NS(C)(=O)=O)NC(c2nccs2)=N[C@@]1(C)c1ccc(F)cc1 [Example 51, (S)-6-((S)-4,4-difluoro-2-methanesulfonylaminocarbonyl-pyrrolidin-1-ylmethyl)-4-(4-fluoro-phenyl)-4-methyl-2-thiazol-2-yl-1,4-dihydro-pyrimidine-5-carboxylic acid methyl ester] | 4.74 | 90 µM | 
13 | COC(=O)C1=C(CN2CC(F)(F)C[C@H]2C(=O)O)NC(c2nccs2)=N[C@@]1(C)c1ccc(F)c(F)c1 [Example 14, (S)-6-((S)-2-Carboxy-4,4-difluoro-pyrrolidin-1-ylmethyl)-4-(3,4-difluoro-phenyl)-4-methyl-2-thiazol-2-yl-1,4-dihydro-pyrimidine-5-carboxylic acid methyl ester] | 6.70 | > 100 µM | 
14 | COC(=O)C1=C(CN2CC(F)(F)C[C@H]2C(=O)O)NC(c2ncc(Cl)s2)=N[C@@]1(C)c1ccc(F)cc1 [Example 33, (S)-6-((S)-2-carboxy-4,4-difluoro-pyrrolidin-1-ylmethyl)-2-(5-chloro-thiazol-2-yl)-4-(4-fluoro-phenyl)-4-methyl-1,4-dihydro-pyrimidine-5-carboxylic acid methyl ester] | 5.68 | 80 µM | 
15 | COC(=O)C1=C(CN2CC(F)(F)C[C@H]2C(=O)O)NC(c2nccn2C)=N[C@@]1(C)c1ccc(F)cc1 [Example 27, (S)-6-((S)-2-carboxy-4,4-difluoro-pyrrolidin-1-ylmethyl)-4-(4-fluoro-phenyl)-4-methyl-2-(1-methyl-1H-imidazol-2-yl)-1,4-dihydro-pyrimidine-5-carboxylic acid methyl ester] | 5.57 | 55.8 µM | 
